Experimental data from the CheMixHub viscosity set.

Assay: xn = mol fraction of the nth substance listed

COc1ccccc1N + CCCCOCCO
303.15 K, 101 kPa
Conditions	viscosity [mPa·s]
x1 = 0.115	3.21
x1 = 0.2262	3.538
x1 = 0.3338	3.847
x1 = 0.438	4.116
x1 = 0.539	4.334
x1 = 0.6369	4.494
x1 = 0.7318	4.629
x1 = 0.8238	4.741
x1 = 0.9132	4.839

CCC(C)=O + CCCCn1cc[n+](C)c1.F[B-](F)(F)F
298.15 K, 101.33 kPa
Conditions	viscosity [mPa·s]
x2 = 0.7996	42.25
x2 = 0.8995	67.85

C1CCCCC1 + CCCO
Conditions	viscosity [mPa·s]
298.15 K, 100 kPa, x2 = 0.0547	0.8988
298.15 K, 100 kPa, x2 = 0.1077	0.9091
298.15 K, 100 kPa, x2 = 0.1968	0.9202
298.15 K, 100 kPa, x2 = 0.3164	0.9358
298.15 K, 100 kPa, x2 = 0.4278	1.013
298.15 K, 100 kPa, x2 = 0.6293	1.243
298.15 K, 100 kPa, x2 = 0.8064	1.502
298.15 K, 100 kPa, x2 = 0.8873	1.626
298.15 K, 101 kPa, x2 = 0.0166	0.873
298.15 K, 101 kPa, x2 = 0.0647	0.865
298.15 K, 101 kPa, x2 = 0.1219	0.867
298.15 K, 101 kPa, x2 = 0.2231	0.889
298.15 K, 101 kPa, x2 = 0.3207	0.946
298.15 K, 101 kPa, x2 = 0.3805	0.994
298.15 K, 101 kPa, x2 = 0.7039	1.371
298.15 K, 101 kPa, x2 = 0.8023	1.529
303.15 K, 101 kPa, x2 = 0.6491	1.1
303.15 K, 101.33 kPa, x2 = 0.109	0.8411
303.15 K, 101.33 kPa, x2 = 0.208	0.8728
303.15 K, 101.33 kPa, x2 = 0.3385	0.9327
303.15 K, 101.33 kPa, x2 = 0.4215	0.9852
303.15 K, 101.33 kPa, x2 = 0.6115	1.141
303.15 K, 101.33 kPa, x2 = 0.708	1.237
303.15 K, 101.33 kPa, x2 = 0.8094	1.37
308.15 K, 100 kPa, x2 = 0.0547	0.718
308.15 K, 100 kPa, x2 = 0.1077	0.7248
308.15 K, 100 kPa, x2 = 0.1968	0.7355
308.15 K, 100 kPa, x2 = 0.3164	0.7941
308.15 K, 100 kPa, x2 = 0.4278	0.8335
308.15 K, 100 kPa, x2 = 0.5319	0.8971
308.15 K, 100 kPa, x2 = 0.6293	0.9922
308.15 K, 100 kPa, x2 = 0.7206	1.095
308.15 K, 100 kPa, x2 = 0.8064	1.203
308.15 K, 100 kPa, x2 = 0.8873	1.317
308.15 K, 100 kPa, x2 = 0.9635	1.491
308.15 K, 101 kPa, x2 = 0.0166	0.736
308.15 K, 101 kPa, x2 = 0.0647	0.73
308.15 K, 101 kPa, x2 = 0.1219	0.732
308.15 K, 101 kPa, x2 = 0.2231	0.746
308.15 K, 101 kPa, x2 = 0.3207	0.782
308.15 K, 101 kPa, x2 = 0.3805	0.818
308.15 K, 101 kPa, x2 = 0.4203	0.845
308.15 K, 101 kPa, x2 = 0.6491	1.022
308.15 K, 101 kPa, x2 = 0.7039	1.099
308.15 K, 101 kPa, x2 = 0.8023	1.218
313.15 K, 101 kPa, x2 = 0.6491	0.9392
318.15 K, 101 kPa, x2 = 0.0166	0.634
318.15 K, 101 kPa, x2 = 0.0647	0.626
318.15 K, 101 kPa, x2 = 0.1219	0.624
318.15 K, 101 kPa, x2 = 0.2231	0.634
318.15 K, 101 kPa, x2 = 0.3207	0.66
318.15 K, 101 kPa, x2 = 0.3805	0.683
318.15 K, 101 kPa, x2 = 0.4203	0.706
318.15 K, 101 kPa, x2 = 0.7039	0.896
318.15 K, 101 kPa, x2 = 0.8023	0.992

COC(C)=O + CCCO
viscosity [mPa·s]
Conditions	298.15 K	313.15 K
101 kPa, x1 = 0.0464	1.587	1.153
101 kPa, x1 = 0.0999	1.295	0.965
101 kPa, x1 = 0.1992	1.001	0.769
101 kPa, x1 = 0.3035	0.794	0.626
101 kPa, x1 = 0.4028	0.654	0.529
101 kPa, x1 = 0.5088	0.555	0.458
101 kPa, x1 = 0.5545	0.52	0.433
101 kPa, x1 = 0.6022	0.49	0.411
101 kPa, x1 = 0.7037	0.439	0.375
101 kPa, x1 = 0.7973	0.401	0.346
101 kPa, x1 = 0.8988	0.39	0.341
101 kPa, x1 = 0.9458	0.379	0.332
101 kPa, x2 = 0.1056	0.375	–
101 kPa, x2 = 0.1987	0.399	–
101 kPa, x2 = 0.298	0.432	–
101 kPa, x2 = 0.3999	0.483	–
101 kPa, x2 = 0.5012	0.55	–
101 kPa, x2 = 0.5963	0.644	–
101 kPa, x2 = 0.6991	0.793	–
101 kPa, x2 = 0.7989	1.014	–
101 kPa, x2 = 0.8845	1.306	–
101.33 kPa, x1 = 0.0504	1.667	–
101.33 kPa, x1 = 0.1935	1.074	–
101.33 kPa, x1 = 0.3023	0.817	–
101.33 kPa, x1 = 0.4167	0.654	–
101.33 kPa, x1 = 0.5497	0.544	–
101.33 kPa, x1 = 0.6021	0.509	–
101.33 kPa, x1 = 0.6703	0.48	–
101.33 kPa, x1 = 0.7809	0.439	–
101.33 kPa, x1 = 0.8648	0.409	–
